According to patent EP1156056A1, “5-GLYCOSYLOXY-6-HYDROXYNAPHTHO 2,3-f]QUINOLINE-7,12-DIONE HAVING ANTICANCER ACTIVITIES” (ZAIDAN HOJIN BISEIBUTSU KAGAKU KENKYU KAI, priority 1999, dated 2000):
In brackets after ≈: the same amount, converted by molar mass. Read-outs that look alike come from different tables or passages of the source.

Assays:
ICR mice = test: Acute toxicity in mice, survival after intraperitoneal administration (Test Example 2)
Method: In this Test Example, the acute toxicity of Compound A of this invention as administered to mice was evaluated. […] By way of comparison, similar test was carried out with adriamycin (in the form of hydrochloride) .

[1] = tested on: human acute promyeloleukemia (HL60); test: Inhibition of proliferation of cancer cells in culture (Test Examples 1 and 3); format: cell-based
Method: (§1) A culture medium for cancer cells was put into test tubes. To the culture medium in each tube, there was transplanted each of such various mouse cancer cells or human cancer cells as shown in Table 1 below. The cells so transplanted were cultivated under the conditions at 37°C in an air atmosphere containing 5 % CO2. To the medium containing the cancer cells so cultivated, there was added said Compounds A, B, D, E or F of this invention at different concentrations, as the test compound. […] As the comparative compound, adriamycin now clinically used was tested to repeat the test in the same way.
(§2) Namely, they are mouse colon cancer (colon 26), mouse B-cell lymphoma (LB32T), mouse lymphoma (L-1210), human cervical cancer (HeLa), human acute promyeloleukemia (HL60), human prostatic cancer (PC3), human pudendal squamous cell carcinoma (A431), human pulmonary carcinoma (PC6), human mastocarcinoma (MCF7), human esophageal carcinoma (TT), human prostatic cancer (LNcap) and human colon cancer (DLD-1).
(§3) The test method and the nature of cancer cells to be tested are the same as those in Test Example 1 given hereinbefore. In this Test Example 3, however, eight kinds of cancer cells indicated in Table 3 below are used, among the twelve kinds of cancer cells which were used in Test Example 1.
(§4) As the test results of measurement, the evaluated values of the concentration of each test compound which could inhibit the proliferation of cancer cells by 50 % (namely, 50 % inhibitory concentration:IC50, µg/ml) are given in Table 3.

[2] = tested on: human prostatic cancer (PC3); test: as above; format: cell-based; conditions: for IC50: Homo sapiens; for anticancer activities against PC3, times higher than those of adriamycin: Test Example 1, relative to adriamycin
Method: as §1, §2, §3, §4

[3] = tested on: human cervical cancer (HeLa); test: as above; format: cell-based
Method: as §1, §2, §3, §4

[4] = tested on: human colon cancer (DLD-1); test: as above; format: cell-based; conditions: for IC50: Homo sapiens; for anticancer activities against DLD-1, times higher than those of adriamycin: Test Example 1, relative to adriamycin
Method: as §1, §2, §3, §4

[5] = tested on: human prostatic cancer (LNcap); test: as above; format: cell-based
Method: as §1, §2, §3, §4

mouse lymphoma (L-1210) = test: as above; format: cell-based
Method: as §1, §2, §3, §4

[6] = tested on: mouse colon cancer (colon 26); test: as above; format: cell-based
Method: as §1, §2, §3, §4

[7] = tested on: mouse B-cell lymphoma (LB32T); test: as above; format: cell-based
Method: as §1, §2, §3, §4

[8] = tested on: human pulmonary carcinoma (PC6); test: Inhibition of proliferation of cancer cells in culture (Test Example 1); format: cell-based; conditions: 72 hours cultivation, read-out: Concentration of test compound to inhibit the proliferation of cancer cells by 50 %
Method: as §1, §2

[9] = tested on: human mastocarcinoma (MCF7); test: as above; format: cell-based; conditions: 72 hours cultivation, read-out: Concentration of test compound to inhibit the proliferation of cancer cells by 50 %
Method: as §1, §2

[10] = tested on: human esophageal carcinoma (TT); test: as above; format: cell-based; conditions: 72 hours cultivation, read-out: Concentration of test compound to inhibit the proliferation of cancer cells by 50 %
Method: as §1, §2

[11] = tested on: human pudendal squamous cell carcinoma (A431); test: as above; format: cell-based; conditions: A-431, 72 hours cultivation, read-out: Concentration of test compound to inhibit the proliferation of cancer cells by 50 %
Method: as §1, §2

[12] = HL-60, 72 hours cultivation, Test Example 1, read-out: Concentration of test compound to inhibit the proliferation of cancer cells by 50 %, IC50
[13] = 72 hours cultivation, Test Example 1, read-out: Concentration of test compound to inhibit the proliferation of cancer cells by 50 %, IC50
[14] = Test Example 3, Compounds N to T used as trifluoroacetate, read-out: IC50
[15] = LNcap, 72 hours cultivation, Test Example 1, read-out: Concentration of test compound to inhibit the proliferation of cancer cells by 50 %, IC50
[16] = L1210, 72 hours cultivation, Test Example 1, read-out: Concentration of test compound to inhibit the proliferation of cancer cells by 50 %, IC50
[17] = colon26, 72 hours cultivation, Test Example 1, read-out: Concentration of test compound to inhibit the proliferation of cancer cells by 50 %, IC50
[18] = ICR, mouse, in vivo, ip, 14 days

IC50 [1, 12] [µg/mL] | IC50 [2, 13] [µg/mL] | IC50 [3, 13] [µg/mL] | IC50 [4, 13] [µg/mL] | IC50 [5, 15] [µg/mL] | IC50 [8] [µg/mL] | IC50 [9] [µg/mL] | IC50 [10] [µg/mL] | IC50 [11] [µg/mL] | SMILES | IC50 (mouse lymphoma (L-1210); [16]) [µg/mL] | IC50 [6, 17] [µg/mL] | IC50 [7, 13] [µg/mL] | anticancer activities against PC3, times higher than those of adriamycin [2] [times] | anticancer activities against DLD-1, times higher than those of adriamycin [4] [times] | further results
0.35 (≈ 0.797 µM) | 0.11 (≈ 0.25 µM) | 0.45 (≈ 1.02 µM) | 0.12 (≈ 0.273 µM) | 0.31 (≈ 0.706 µM) | 1.06 (≈ 2.41 µM) | 1.24 (≈ 2.82 µM) | 1.18 (≈ 2.69 µM) | 1.26 (≈ 2.87 µM) | C[C@@H]1O[C@@H](Oc2c(O)c3c(c4cccnc24)C(=O)c2ccccc2C3=O)[C@@H](F)[C@H](O)[C@@H]1O [Compound D, 5-(2,6-dideoxy-2-fluoro-α-L-galactopyranosyloxy)-6-hydroxynaphtho[2,3-f]quinoline-7,12-dione] | 0.47 (≈ 1.07 µM) | 0.2 (≈ 0.455 µM) | 0.3 (≈ 0.683 µM) | 8.2 | 16 | –
0.33 (≈ 0.751 µM) | 0.08 (≈ 0.182 µM) | 0.16 (≈ 0.364 µM) | 0.04 (≈ 0.091 µM) | 0.1 (≈ 0.228 µM) | 1.08 (≈ 2.46 µM) | 1.26 (≈ 2.87 µM) | 1.12 (≈ 2.55 µM) | 1.11 (≈ 2.53 µM) | C[C@@H]1O[C@H](Oc2c(O)c3c(c4cccnc24)C(=O)c2ccccc2C3=O)[C@@H](F)[C@H](O)[C@@H]1O [Compound E, 5-(2,6-dideoxy-2-fluoro-β-L-galactopyranosyloxy)-6-hydroxynaphtho[2,3-f]quinoline-7,12-dione] | 0.54 (≈ 1.23 µM) | 0.23 (≈ 0.523 µM) | 0.26 (≈ 0.592 µM) | 11 | – | –

The next lines start with the molecule.

SMILES | IC50 [1, 12] [µg/mL] | IC50 [2, 13] [µg/mL] | IC50 [3, 13] [µg/mL] | IC50 [4, 13] [µg/mL] | IC50 [5, 15] [µg/mL] | IC50 [8] [µg/mL] | IC50 [9] [µg/mL] | IC50 [10] [µg/mL] | IC50 [11] [µg/mL] | IC50 (mouse lymphoma (L-1210); [16]) [µg/mL] | IC50 [6, 17] [µg/mL] | IC50 [7, 13] [µg/mL] | anticancer activities against PC3, times higher than those of adriamycin [2] [times] | anticancer activities against DLD-1, times higher than those of adriamycin [4] [times] | further results
COc1cccc2c1C(=O)c1c(O)c3c(c(O)c1C2=O)C[C@@](O)(C(=O)CO)C[C@@H]3O[C@H]1C[C@H](N)[C@H](O)[C@H](C)O1 [Adriamycin, reference compound] | 0.03 (≈ 0.0552 µM) | 0.9 (≈ 1.66 µM) | 0.06 (≈ 0.11 µM) | 1.9 (≈ 3.5 µM) | 0.07 (≈ 0.129 µM) | 1.01 (≈ 1.86 µM) | 1.02 (≈ 1.88 µM) | 1.38 (≈ 2.54 µM) | 1.33 (≈ 2.45 µM) | 0.24 (≈ 0.442 µM) | 0.07 (≈ 0.129 µM) | 0.03 (≈ 0.0552 µM) | – | – | dosage at which the total number of mice survived for 14 days (ICR mice; ICR mice, intraperitoneal, 14 days): 0.125 mg/mouse; Survival day(s) of respective mice (ICR mice; ICR mice, intraperitoneal, dosage 0.125 mg/mouse, 4 mice per group, observed 14 days): >14 (all mice) day(s); IC50 ([1]; HL-60, Test Example 3, Compounds N to T used as trifluoroacetate, read-out: IC50): 0.03 µg/mL (≈ 0.0552 µM); IC50 [2, 14]: 1.14 µg/mL (≈ 2.1 µM); IC50 [3, 14]: 0.06 µg/mL (≈ 0.11 µM); IC50 [4, 14]: 3.4 µg/mL (≈ 6.26 µM); IC50 ([5]; LNCap, Test Example 3, Compounds N to T used as trifluoroacetate, read-out: IC50): 0.1 µg/mL (≈ 0.184 µM); IC50 (mouse lymphoma (L-1210); L1210, Test Example 3, Compounds N to T used as trifluoroacetate, read-out: IC50): 0.38 µg/mL (≈ 0.699 µM); IC50 ([6]; Colon26, Test Example 3, Compounds N to T used as trifluoroacetate, read-out: IC50): 0.09 µg/mL (≈ 0.166 µM); IC50 [7, 14]: 0.04 µg/mL (≈ 0.0736 µM)
C[C@@H]1O[C@@H](Oc2c(O)c3c(c4cccnc24)C(=O)c2ccccc2C3=O)[C@H](F)[C@H](O)[C@@H]1O [Compound A, 5-(2,6-dideoxy-2-fluoro-α-L-talopyranosyloxy)-6-hydroxynaphtho[2,3-f]quinoline-7,12-dione] | 0.36 (≈ 0.819 µM) | 0.16 (≈ 0.364 µM) | 0.46 (≈ 1.05 µM) | 0.12 (≈ 0.273 µM) | 0.28 (≈ 0.637 µM) | 4.34 (≈ 9.88 µM) | 2.23 (≈ 5.08 µM) | 3.16 (≈ 7.19 µM) | 3.36 (≈ 7.65 µM) | 0.59 (≈ 1.34 µM) | 0.32 (≈ 0.728 µM) | 0.43 (≈ 0.979 µM) | 5.6 | 16 | Survival day(s) of respective mice (ICR mice; [18]): >14 (all mice) day(s); dosage at which the total number of mice survived for 14 days (ICR mice; [18]): 4 mg/mouse
CO[C@H]1[C@H](Oc2c(O)c3c(c4cccnc24)C(=O)c2ccccc2C3=O)O[C@@H](C)[C@@H](O)[C@H]1O [Compound B, 5-(6-deoxy-2-O-methyl-α-L-talopyranosyloxy)-6-hydroxynaphtho[2,3-f]quinoline-7,12-dione] | 1.51 (≈ 3.34 µM) | 1.59 (≈ 3.52 µM) | 1.65 (≈ 3.66 µM) | 1.13 (≈ 2.5 µM) | 1.54 (≈ 3.41 µM) | 4.15 (≈ 9.19 µM) | 2.59 (≈ 5.74 µM) | 3.46 (≈ 7.66 µM) | 3.33 (≈ 7.38 µM) | – | – | – | – | 1.7 | –
